Source: ChEMBL document CHEMBL5291721, “A preclinical secondary pharmacology resource illuminates target-adverse drug reaction associations of marketed drugs” (Nat Commun, 2023)

Experiments:
[1] = molecular target: Voltage-gated inwardly rectifying potassium channel KCNH2 (Homo sapiens, UniProt Q12809); assay type: functional; conditions: read-out: AC50
[2] = molecular target: T1, Alpha-1A adrenergic receptor (Homo sapiens, UniProt P35348); assay type: functional, cell-based
T1 sequence (P35348 whole entry): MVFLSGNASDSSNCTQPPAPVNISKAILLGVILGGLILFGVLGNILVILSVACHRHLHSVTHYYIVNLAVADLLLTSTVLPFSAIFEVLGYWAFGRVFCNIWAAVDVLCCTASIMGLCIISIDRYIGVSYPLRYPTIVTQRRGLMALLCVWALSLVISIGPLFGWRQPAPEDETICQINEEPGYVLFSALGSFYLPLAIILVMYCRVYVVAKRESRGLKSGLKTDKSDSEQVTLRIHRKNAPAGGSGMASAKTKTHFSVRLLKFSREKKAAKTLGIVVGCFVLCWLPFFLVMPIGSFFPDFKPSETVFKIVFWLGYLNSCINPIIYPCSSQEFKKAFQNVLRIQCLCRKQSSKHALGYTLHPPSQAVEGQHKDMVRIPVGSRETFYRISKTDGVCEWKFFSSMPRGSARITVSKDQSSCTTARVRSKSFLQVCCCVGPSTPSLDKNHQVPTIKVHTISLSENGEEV

D(3) dopamine receptor = D(3) dopamine receptor (Homo sapiens, UniProt P35462)
[3] = molecular target: Sodium-dependent dopamine transporter (Homo sapiens, UniProt Q01959)
Mu-type opioid receptor = Mu-type opioid receptor (Homo sapiens, UniProt P35372)
Thromboxane A2 receptor [4] = molecular target: T2, Thromboxane A2 receptor (Homo sapiens, UniProt P21731); assay type: functional, cell-based
T2 sequence (P21731 whole entry): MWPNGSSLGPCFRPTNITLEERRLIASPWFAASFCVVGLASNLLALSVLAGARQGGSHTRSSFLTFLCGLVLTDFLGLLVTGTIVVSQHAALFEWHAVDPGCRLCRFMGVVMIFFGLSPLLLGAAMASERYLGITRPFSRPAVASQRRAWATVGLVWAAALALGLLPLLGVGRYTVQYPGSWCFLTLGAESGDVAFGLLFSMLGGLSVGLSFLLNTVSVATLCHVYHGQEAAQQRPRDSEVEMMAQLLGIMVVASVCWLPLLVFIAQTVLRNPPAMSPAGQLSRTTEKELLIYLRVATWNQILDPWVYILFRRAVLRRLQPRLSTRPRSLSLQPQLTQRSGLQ

[5] = molecular target: T1, Alpha-1A adrenergic receptor; assay type: functional, cell-based; remark: listed apart in the source
D(1A) dopamine receptor = D(1A) dopamine receptor (Homo sapiens, UniProt P21728)
[6] = molecular target: Sodium-dependent noradrenaline transporter (Homo sapiens, UniProt P23975)
Acetylcholinesterase = Acetylcholinesterase (Homo sapiens, UniProt P22303); assay type: functional
Estrogen receptor = molecular target: T3, Estrogen receptor (Homo sapiens, UniProt P03372)
T3 sequence (P03372 whole entry): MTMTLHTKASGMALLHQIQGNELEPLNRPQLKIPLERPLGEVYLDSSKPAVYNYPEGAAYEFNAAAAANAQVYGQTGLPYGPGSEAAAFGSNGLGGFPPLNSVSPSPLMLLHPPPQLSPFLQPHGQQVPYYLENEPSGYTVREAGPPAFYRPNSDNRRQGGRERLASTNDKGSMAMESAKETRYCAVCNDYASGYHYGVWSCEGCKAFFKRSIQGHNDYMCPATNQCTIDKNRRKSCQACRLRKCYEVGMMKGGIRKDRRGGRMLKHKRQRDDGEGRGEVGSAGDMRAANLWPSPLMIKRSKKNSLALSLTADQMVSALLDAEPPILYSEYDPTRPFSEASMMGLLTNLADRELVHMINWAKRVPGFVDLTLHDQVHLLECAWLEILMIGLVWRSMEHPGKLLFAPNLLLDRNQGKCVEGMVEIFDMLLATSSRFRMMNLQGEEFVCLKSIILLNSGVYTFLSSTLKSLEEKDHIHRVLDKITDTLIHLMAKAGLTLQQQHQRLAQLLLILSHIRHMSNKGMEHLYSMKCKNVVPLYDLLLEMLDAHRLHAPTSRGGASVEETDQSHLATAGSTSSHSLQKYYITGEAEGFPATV

Thromboxane A2 receptor [7] = molecular target: T2, Thromboxane A2 receptor; assay type: functional, cell-based; remark: listed apart in the source
[8] = molecular target: T4, Amine oxidase [flavin-containing] A (Homo sapiens, UniProt P21397); assay type: functional
T4 sequence (P21397 whole entry): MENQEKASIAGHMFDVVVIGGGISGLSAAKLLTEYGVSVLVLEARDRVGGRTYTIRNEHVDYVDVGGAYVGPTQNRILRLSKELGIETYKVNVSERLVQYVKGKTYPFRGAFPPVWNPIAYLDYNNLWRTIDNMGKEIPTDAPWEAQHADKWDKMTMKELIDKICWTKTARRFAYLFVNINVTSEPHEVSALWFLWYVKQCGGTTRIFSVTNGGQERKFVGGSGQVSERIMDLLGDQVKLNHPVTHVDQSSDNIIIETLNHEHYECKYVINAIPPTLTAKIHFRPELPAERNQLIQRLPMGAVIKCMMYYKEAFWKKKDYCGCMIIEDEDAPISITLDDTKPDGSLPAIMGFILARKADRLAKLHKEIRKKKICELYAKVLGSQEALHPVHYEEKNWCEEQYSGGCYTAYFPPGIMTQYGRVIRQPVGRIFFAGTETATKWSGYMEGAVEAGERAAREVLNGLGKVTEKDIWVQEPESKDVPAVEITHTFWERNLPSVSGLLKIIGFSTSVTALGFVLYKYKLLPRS

[9] = molecular target: Prostaglandin G/H synthase 1 (Homo sapiens, UniProt P23219); assay type: functional
[10] = molecular target: Sodium-dependent serotonin transporter (Homo sapiens, UniProt P31645)
Further: assay procedure not described here.

Mu-type opioid receptor, sequence (P35372 whole entry): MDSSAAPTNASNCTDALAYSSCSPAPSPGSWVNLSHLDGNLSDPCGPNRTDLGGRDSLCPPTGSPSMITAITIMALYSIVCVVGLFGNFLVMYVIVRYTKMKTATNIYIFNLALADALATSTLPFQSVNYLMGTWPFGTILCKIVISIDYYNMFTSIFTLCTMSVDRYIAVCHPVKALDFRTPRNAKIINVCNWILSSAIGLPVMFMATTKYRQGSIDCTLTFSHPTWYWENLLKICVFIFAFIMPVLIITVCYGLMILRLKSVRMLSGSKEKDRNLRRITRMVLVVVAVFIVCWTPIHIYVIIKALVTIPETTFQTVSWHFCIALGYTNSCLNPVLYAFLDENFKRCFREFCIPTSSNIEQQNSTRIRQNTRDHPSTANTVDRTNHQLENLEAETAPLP
Prostaglandin G/H synthase 1, sequence (P23219 whole entry): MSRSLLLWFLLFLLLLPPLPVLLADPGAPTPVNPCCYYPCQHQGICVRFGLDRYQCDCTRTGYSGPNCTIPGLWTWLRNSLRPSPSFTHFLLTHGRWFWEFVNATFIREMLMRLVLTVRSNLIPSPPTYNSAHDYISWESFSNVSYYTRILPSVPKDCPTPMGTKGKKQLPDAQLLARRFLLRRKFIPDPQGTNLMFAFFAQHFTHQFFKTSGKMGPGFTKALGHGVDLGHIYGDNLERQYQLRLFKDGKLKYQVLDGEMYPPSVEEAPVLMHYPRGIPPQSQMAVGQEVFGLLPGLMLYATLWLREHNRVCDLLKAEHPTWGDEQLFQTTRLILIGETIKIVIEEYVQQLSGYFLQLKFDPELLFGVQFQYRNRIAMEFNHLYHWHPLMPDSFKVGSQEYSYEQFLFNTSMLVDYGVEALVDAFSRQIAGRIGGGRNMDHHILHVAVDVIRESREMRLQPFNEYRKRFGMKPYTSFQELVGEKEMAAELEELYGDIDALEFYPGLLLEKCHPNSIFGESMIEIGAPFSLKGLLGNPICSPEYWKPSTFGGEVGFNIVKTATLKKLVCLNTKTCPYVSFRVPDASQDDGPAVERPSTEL
Sodium-dependent noradrenaline transporter, sequence (P23975 whole entry): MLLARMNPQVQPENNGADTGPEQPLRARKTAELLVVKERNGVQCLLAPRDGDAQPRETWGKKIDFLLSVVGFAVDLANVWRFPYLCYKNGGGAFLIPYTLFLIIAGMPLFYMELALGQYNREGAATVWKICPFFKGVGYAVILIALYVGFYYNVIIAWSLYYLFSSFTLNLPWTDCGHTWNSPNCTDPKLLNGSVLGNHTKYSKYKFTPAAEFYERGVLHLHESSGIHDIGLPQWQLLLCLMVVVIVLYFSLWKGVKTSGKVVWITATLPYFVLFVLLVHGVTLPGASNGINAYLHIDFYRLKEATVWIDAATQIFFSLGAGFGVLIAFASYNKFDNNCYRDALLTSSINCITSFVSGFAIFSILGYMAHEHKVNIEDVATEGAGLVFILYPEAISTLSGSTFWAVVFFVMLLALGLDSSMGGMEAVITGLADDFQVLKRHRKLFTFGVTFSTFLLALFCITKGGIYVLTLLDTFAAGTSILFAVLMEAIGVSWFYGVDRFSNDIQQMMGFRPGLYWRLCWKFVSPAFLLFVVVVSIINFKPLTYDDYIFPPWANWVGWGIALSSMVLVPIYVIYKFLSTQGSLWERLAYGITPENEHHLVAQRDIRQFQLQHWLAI
D(1A) dopamine receptor, sequence (P21728 whole entry): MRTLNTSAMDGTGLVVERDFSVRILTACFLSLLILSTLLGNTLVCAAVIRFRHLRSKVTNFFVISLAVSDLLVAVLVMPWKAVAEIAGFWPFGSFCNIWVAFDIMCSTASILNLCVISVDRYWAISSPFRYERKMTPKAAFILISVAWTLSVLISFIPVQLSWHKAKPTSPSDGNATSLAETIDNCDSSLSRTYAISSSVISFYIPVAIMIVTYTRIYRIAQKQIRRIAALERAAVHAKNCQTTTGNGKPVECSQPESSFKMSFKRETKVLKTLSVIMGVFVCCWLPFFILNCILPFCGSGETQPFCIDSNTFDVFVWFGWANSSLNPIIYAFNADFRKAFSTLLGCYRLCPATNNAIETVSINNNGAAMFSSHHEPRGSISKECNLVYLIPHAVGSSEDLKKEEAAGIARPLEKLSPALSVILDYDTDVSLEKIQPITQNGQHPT
D(3) dopamine receptor, sequence (P35462 whole entry): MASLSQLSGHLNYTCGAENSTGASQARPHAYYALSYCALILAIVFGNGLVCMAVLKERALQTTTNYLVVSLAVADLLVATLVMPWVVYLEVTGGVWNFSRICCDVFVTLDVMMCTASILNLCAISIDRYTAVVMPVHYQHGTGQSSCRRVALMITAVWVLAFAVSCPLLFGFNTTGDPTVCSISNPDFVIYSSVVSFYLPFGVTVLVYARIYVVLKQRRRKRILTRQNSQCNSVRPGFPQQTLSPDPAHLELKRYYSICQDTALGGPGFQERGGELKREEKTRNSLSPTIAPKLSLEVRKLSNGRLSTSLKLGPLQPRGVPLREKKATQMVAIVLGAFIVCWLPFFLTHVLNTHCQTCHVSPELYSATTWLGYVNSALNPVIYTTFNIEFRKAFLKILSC
Voltage-gated inwardly rectifying potassium channel KCNH2, sequence (Q12809 whole entry): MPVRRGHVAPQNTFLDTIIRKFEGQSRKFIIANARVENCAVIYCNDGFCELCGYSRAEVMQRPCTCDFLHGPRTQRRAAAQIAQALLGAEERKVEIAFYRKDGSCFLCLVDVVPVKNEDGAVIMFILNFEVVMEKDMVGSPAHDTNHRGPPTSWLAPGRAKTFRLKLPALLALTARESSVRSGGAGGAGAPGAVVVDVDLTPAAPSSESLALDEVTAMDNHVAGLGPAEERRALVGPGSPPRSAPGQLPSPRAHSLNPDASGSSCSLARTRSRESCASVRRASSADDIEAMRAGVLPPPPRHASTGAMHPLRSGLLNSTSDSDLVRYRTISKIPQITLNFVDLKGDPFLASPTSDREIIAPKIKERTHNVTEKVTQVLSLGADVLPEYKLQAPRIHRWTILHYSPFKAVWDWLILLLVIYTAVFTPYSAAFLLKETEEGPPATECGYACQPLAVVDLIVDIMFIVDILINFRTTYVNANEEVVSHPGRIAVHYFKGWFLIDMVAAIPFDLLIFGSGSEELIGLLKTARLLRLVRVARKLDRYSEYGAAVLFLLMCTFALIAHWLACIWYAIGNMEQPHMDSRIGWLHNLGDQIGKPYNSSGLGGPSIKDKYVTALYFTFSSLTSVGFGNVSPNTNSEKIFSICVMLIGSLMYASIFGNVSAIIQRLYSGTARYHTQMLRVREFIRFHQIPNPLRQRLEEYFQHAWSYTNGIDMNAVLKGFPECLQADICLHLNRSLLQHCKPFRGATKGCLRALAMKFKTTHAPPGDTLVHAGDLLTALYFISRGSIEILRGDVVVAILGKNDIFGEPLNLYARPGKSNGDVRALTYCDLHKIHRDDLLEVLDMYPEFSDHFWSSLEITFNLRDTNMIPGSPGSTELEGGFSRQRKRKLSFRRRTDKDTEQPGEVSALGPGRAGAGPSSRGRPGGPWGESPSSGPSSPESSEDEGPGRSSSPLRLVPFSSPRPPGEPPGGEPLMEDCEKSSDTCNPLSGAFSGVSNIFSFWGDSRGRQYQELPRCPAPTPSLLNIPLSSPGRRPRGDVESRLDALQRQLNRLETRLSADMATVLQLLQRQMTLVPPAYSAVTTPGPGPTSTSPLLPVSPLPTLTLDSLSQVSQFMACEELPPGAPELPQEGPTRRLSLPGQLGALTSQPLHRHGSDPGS
Acetylcholinesterase, sequence (P22303 whole entry): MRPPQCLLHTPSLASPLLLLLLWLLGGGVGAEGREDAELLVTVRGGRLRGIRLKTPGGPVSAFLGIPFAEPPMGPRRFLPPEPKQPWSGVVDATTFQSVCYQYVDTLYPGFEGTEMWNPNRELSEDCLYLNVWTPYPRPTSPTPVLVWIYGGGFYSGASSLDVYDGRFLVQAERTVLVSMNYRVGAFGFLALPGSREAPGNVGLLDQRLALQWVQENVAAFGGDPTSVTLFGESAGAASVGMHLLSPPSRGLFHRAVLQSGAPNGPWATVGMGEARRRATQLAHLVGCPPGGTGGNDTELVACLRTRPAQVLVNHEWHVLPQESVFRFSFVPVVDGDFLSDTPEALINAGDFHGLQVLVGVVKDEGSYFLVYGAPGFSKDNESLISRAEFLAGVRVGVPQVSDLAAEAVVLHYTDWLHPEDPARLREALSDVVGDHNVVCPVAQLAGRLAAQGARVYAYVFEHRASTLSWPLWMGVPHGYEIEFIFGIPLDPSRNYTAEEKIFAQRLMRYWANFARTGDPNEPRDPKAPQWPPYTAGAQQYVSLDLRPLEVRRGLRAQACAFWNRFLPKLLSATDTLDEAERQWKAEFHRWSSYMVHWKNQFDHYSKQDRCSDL
Sodium-dependent dopamine transporter, sequence (Q01959 whole entry): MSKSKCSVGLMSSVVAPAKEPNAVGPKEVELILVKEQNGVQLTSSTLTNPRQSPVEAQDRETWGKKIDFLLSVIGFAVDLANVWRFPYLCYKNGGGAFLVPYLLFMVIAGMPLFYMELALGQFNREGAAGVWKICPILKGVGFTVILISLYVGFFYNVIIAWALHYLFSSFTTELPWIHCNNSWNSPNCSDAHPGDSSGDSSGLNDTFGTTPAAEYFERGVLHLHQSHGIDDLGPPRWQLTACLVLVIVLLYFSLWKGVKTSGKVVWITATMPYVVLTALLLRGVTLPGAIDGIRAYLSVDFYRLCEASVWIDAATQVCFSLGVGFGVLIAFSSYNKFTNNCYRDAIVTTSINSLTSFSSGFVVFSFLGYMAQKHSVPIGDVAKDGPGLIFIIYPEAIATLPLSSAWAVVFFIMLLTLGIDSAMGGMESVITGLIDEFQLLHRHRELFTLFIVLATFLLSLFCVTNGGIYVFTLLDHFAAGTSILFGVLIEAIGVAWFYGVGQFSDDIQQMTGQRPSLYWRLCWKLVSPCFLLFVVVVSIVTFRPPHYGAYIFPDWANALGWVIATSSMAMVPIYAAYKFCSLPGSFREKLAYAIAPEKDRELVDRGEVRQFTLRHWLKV

For `C=C1C[C@@H]2[C@H](CC[C@]3(C)C(=O)CC[C@@H]23)[C@@]2(C)C=CC(=O)C=C12` [EXEMESTANE], the AC50 [1] was > 30 µM.
With `Oc1c(I)cc(I)c2cccnc12` [IODOQUINOL] the AC50 [2] was > 30 µM, the AC50 (D(3) dopamine receptor) was > 30 µM and the AC50 [3] was > 30 µM. The AC50 (Mu-type opioid receptor) was 8.91 µM, the AC50 [1] was > 30 µM and the AC50 (Thromboxane A2 receptor [4]) was > 30 µM. The AC50 [5] was > 30 µM, the AC50 (D(1A) dopamine receptor) was > 30 µM and the AC50 [6] was 0.874 µM. The AC50 (Acetylcholinesterase) was > 30 µM, the AC50 (Estrogen receptor) was > 30 µM and the AC50 (Thromboxane A2 receptor [7]) was > 30 µM. The AC50 [8] was > 30 µM and the AC50 [9] was > 30 µM.
With `CN(Cc1cc(Br)cc(Br)c1N)C1CCCCC1` [BROMHEXINE] the AC50 [2] was > 30 µM, the AC50 (D(3) dopamine receptor) was > 30 µM and the AC50 [3] was 12.3 µM. The AC50 (Mu-type opioid receptor) was > 30 µM, the AC50 [1] was 20 µM and the AC50 (Thromboxane A2 receptor [4]) was > 30 µM. For the same molecule, the AC50 [5] was > 30 µM, the AC50 (D(1A) dopamine receptor) was > 30 µM and the AC50 [6] was 22 µM. The AC50 (Acetylcholinesterase) was > 30 µM, the AC50 (Estrogen receptor) was > 30 µM and the AC50 (Thromboxane A2 receptor [7]) was > 30 µM. The AC50 [8] was > 30 µM and the AC50 [9] was > 30 µM.
In the case of `CC(C(O)c1ccc(O)cc1)N1CCC(Cc2ccccc2)CC1` (stereo unspecified) [IFENPRODIL], the AC50 [1] is reported as 0.67 µM.
For `CC(C)(N)Cc1ccc(Cl)cc1` [CHLORPHENTERMINE], the AC50 [1] was > 30 µM.
For `NS(=O)(=O)c1cc(-c2nnn[nH]2)c(NCc2cccs2)cc1Cl` [AZOSEMIDE], the AC50 [1] was > 30 µM.
For `C[N+](C)(C)CC(=O)O` [BETAINE], the AC50 [1] was > 30 µM.
For `CCCC(=O)N1CCCN(c2nc(N)c3cc(OC)c(OC)cc3n2)CC1` [BUNAZOSIN], the AC50 [1] was 4.5 µM.
`CC(=O)N[C@H]1[C@H]([C@H](O)[C@H](O)CO)OC(C(=O)O)=C[C@@H]1N=C(N)N` [ZANAMIVIR] was tested, and the AC50 [1] was > 30 µM.
With `CN(C)[C@@H]1C(O)=C(C(N)=O)C(=O)[C@@]2(O)C(O)=C3C(=O)c4c(O)ccc(Cl)c4[C@@H](O)[C@H]3C[C@@H]12` [DEMECLOCYCLINE] the AC50 [1] was > 30 µM.
`C[N+](C)(C)CCOC(N)=O` [CARBAMOYLCHOLINE] was tested, and the AC50 [1] was > 30 µM.
In the case of `C[C@@H]1O[C@@H](OC[C@H]2O[C@@H](Oc3c(-c4ccc(OCCO)c(OCCO)c4)oc4cc(OCCO)cc(O)c4c3=O)[C@H](O)[C@@H](O)[C@@H]2O)[C@H](O)[C@H](O)[C@H]1O` [TROXERUTIN], the AC50 [2] is reported as > 30 µM, the AC50 (D(3) dopamine receptor) is reported as > 30 µM and the AC50 [10] is reported as > 30 µM. For the same molecule, the AC50 [3] was > 30 µM, the AC50 (Mu-type opioid receptor) was > 30 µM and the AC50 [1] was > 30 µM. The AC50 (Thromboxane A2 receptor [4]) was > 30 µM, the AC50 [5] was > 30 µM and the AC50 (D(1A) dopamine receptor) was > 30 µM. For the same molecule, the AC50 [6] was > 30 µM, the AC50 (Acetylcholinesterase) was > 30 µM and the AC50 (Thromboxane A2 receptor [7]) was > 30 µM. For the same molecule, the AC50 [8] was > 30 µM and the AC50 [9] was > 30 µM.
In the case of `CC[C@@H]1/C=C(\C)C[C@H](C)C[C@H](OC)[C@H]2O[C@@](O)(C(=O)C(=O)N3CCCC[C@H]3C(=O)O[C@H](/C(C)=C/[C@@H]3CC[C@H](Cl)[C@H](OC)C3)[C@H](C)[C@@H](O)CC1=O)[C@H](C)C[C@@H]2OC` [PIMECROLIMUS], the AC50 [2] is reported as > 30 µM, the AC50 (D(3) dopamine receptor) is reported as > 30 µM and the AC50 [10] is reported as > 30 µM. For the same molecule, the AC50 [3] was > 30 µM, the AC50 (Mu-type opioid receptor) was > 30 µM and the AC50 [1] was > 30 µM. The AC50 (Thromboxane A2 receptor [4]) was > 30 µM, the AC50 [5] was > 30 µM and the AC50 (D(1A) dopamine receptor) was > 30 µM. The AC50 [6] was > 30 µM, the AC50 (Acetylcholinesterase) was > 30 µM and the AC50 (Thromboxane A2 receptor [7]) was > 30 µM. For the same molecule, the AC50 [8] was > 30 µM and the AC50 [9] was > 30 µM.
`CC(C)NCC1CCc2cc(CO)c([N+](=O)[O-])cc2N1` (stereo unspecified) [OXAMNIQUINE] was tested, and the AC50 [1] was > 30 µM.
